Reference: patent US20050169928A1, “Antibodies which bind to proteins involved in cytoadhesion of plasmodlum falciparum ring-stage-infected erythrocytes” (INSTITUT PASTEUR, priority 2000, published 2005)

What was measured:
Assay type in all cases: cell-based, P. falciparum
[1] = test system: ring-stage PA^CSA IE cytoadhesion to SBEC 1D; experiment: Ring-stage IE cytoadhesion inhibition assay on SBEC 1D (Example 1); details: for inhibitory activity on ring-stage IE cytoadhesion to SBEC 1D (in words): ring-stage PA^CSA IE 8 hours post-invasion, glycosaminoglycans, enzymes on target cells, thrombospondin; for sensitivity of ring-stage IE^CSA cytoadhesion to inhibitor: 0.1 mg/ml CSA, or target cells pretreated with 1 U/ml chondroitinase ABC, until the 16th hour after invasion; for time after invasion of maximal inhibition of IE^CSA binding: highly synchronized PA^CSA IE tested every 4 hours throughout the cycle
Procedure: Gelatin-enriched preparations of mature-stage IE were resuspended at a concentration of 5×10^6 IE/ml in cytoadhesion medium at pH 6.8. Cytoadhesion microassays were then performed on 12-well IFA slides (Institut Pasteur, Paris) as previously described (Pouvelle, B. Fusai, T. Lepolard, C. & Gysin, J. biological and biochemical characteristics of cytoadhesion of Plasmodium falciparum-infected erythrocytes to chondroitin-4-sulfate. Infect. Immun. 66, 4950-4956 (1998)).
Ring-stage cytoadhesion assays were performed with endothelial cells as described above and with placental cryosections as previously described (Gysin, J., Pouvelle, B., Le Tonqueze, M., Edelman, L. & Boffa, M. C., Chondroitin sulfate of thrombomodulin is an adhesion receptor for Plasmodium falciparum-infected erythrocyics. Mol. Biochem. Parasitol. 88, 267-271 (1997)), with 1 to 10% parasitaemia (a 1×10^7 IE/ml suspension).
For cytoadhesion inhibition assays, the IE were incubated with SBEC in the presence of 2.5 μg/ml thrombospondin, 0.1 mg/ml soluble CSA, dermatan sulphate (CSB), chondroitin-6-sulphate (CSC), keratin sulphate (Ker), hyaluronic acid (HA), heparin (Hep) (Fluka, France), or with SBEC previously incubated for 1 hour at 37° C. with 1 U/ml chondrotinase ABC (Fluka, France), 1 to 10 U/ml heparinase III (Hepase III) (Sigma, France) or 5 μg/ml anti-CD36 FA6-152 Mab (gift from Dr. Edelman). Inhibition assays were also carried out in the presence of sera obtained from Senegalese and Cameroonian patients living in areas of endemic malaria. The sera were obtained from primigravida and multigravida women, an adult and a child, absorbed onto O^+ human blood and SBEC ID, and tested at a dilution of 1/20. The results were compared to those for cytoadhesion in the presence of a 1/20 dilution of a pool of control sera from volunteers who had never contacted malaria.
The protease sensitivity of ring-stage IE cytoadhesion was analyzed using 5 μl of packed PA^CSA IE (8 hours post-invasion). IE were incubated with 10 or 100 μg/ml of trypsin TPCK (Signa) or 100 μg/ml of α-chymotrypsin TLCK (Sigma) for 30 minutes at 37° C. The digestion was stopped by adding culture medium containing 10% human plasma. The cells were then washed in cytoadhesion medium and allowed to cytoadhere to SBEC 1D, as previously described, using untreated PA^CSA as a control.

[2] = test system: cytoadhesion of IE on endothelial cells or placenta cryosections; experiment: Stage-specific cytoadhesion inhibition on endothelial cells or placenta cryosections (discussion)
Procedure: Cytoadhesion inhibition and disruption assays were performed on SBEC 1D cells grown to confluence on 12-dot IFA slides as described elsewhere (Pouvelle, B., P. Meyer, C. Robert, L. Bardel and J. Gysin. 1997. Chondroitin-4-sulfate impairs in vitro and in vivo cytoadherence of Plasmodium falciparum infected erythrocytes. Mol Med. 3:508-18) by assessing the laboratory CSA-binding strains FCR3, FCBR, BXII, SUK, HB, IBR and the placenta isolates no. 24, 42,42DJ, 193 and 939. In short: 20 μl of a mixture of synchronized rIE with nE or mIE from corresponding cultures at a parasitaemia of 4-15% for a total 10^7 IE/ml RPMI 1640, pH6.8 were layered per dot of confluent SBEC 1D cells. For the inhibition assay, 20 μl of each mAb at a concentration of 0.2 to 200 μg/ml was deposited simultaneously with rIE or IE and corresponding nE/dot for 2 hours at +37° C. For the disruption assay the same mAbs were added after a one hour preincubation of IEs and nEs with endothelial cells for an additional 1 hour. Unbound erythrocytes were removed by vigorously washing the slides in RPMI 1640, pH6.8. Bound IE and nE were fixed with 0.25% glutaraldehyde in PBS pH7.2. The inhibition and disruption of cytoadhesion was expressed as bound IE and nE/mm^2 of confluent endothelial cells in the presence of mAbs, in comparison to unrelated mouse IgG of the same IgG isotype (Sigma, USA). […]

[3] = test system: adherent rIE^CSA/nE and mature IE^CSA on SBEC 1D; experiment: Cytoadhesion inhibition and desequestration under flow conditions at 0.05 Pa; details: B4 200 μg/ml, CSA 10 μg/ml final
Procedure: In short: Four serial 7 μm normal human placenta cryosections (each of approximately 4 mm×4 mm) of the maternal compartment were mounted on a microscopic slide 75-25 mm and fixed with 0.5% para-formaldehyde in PBS at pH 7.2, for 2 hours at room temperature. After washing several times with PBS and then with RPMI 1640 pH 6.8, the slide is mounted on a perfusing chamber (Immunetics, France). An equipart mixture of 8±4 hours old synchronized rIE^CSA (including nE from the same culture) and 34±4 hours old IE^CSA at a final hematocrit of 25% in RPMI 1640, pH 7.2 were then flow through the chamber for 10 min at 0.05 Pascals. After rinsing for 10 min with the medium at the same shear stress, 100 ug/ml of a 50 kDa CSA (Fluka, France) dissolved in RPMI or 200 ug/ml of mAbs was flushed through the chamber for 10 min at the same shear stress. Slides from 3 experiments were recovered and stained by Giemsa. Mature IE, rIE and nE were counted and the result expressed as arithmetic mean percentage of bound erythrocytes±SD/20 fields of 100× Oil magnification as described elsewhere (Gysin, J., B. Pouvelle, N. Fievet, A. Scherf, and C. Lepolard. 1999. Ex vivo desequestration of Plasmodium falciparum-infected erythrocytes from human placenta by chondroitin sulfate A. Infect Immun. 67:6596-602).

For “Thrombospondin: mature-stage IE adhesion receptor protein tested at 2.5 μg/ml”, the “inhibitory activity on ring-stage IE cytoadhesion to SBEC 1D (in words)” value (“inhibitory activity” for short) [1] was “no effect”.

With chondroitin-sulphate A [CSA] the “inhibition of cytoadhesion of mature blood stages” value ([2]; mature blood stages) was greater than 90%, the “inhibition of cytoadhesion of young trophozoites” value ([2]; young trophozoites (16-20 hours), RSP-2 and PfEMP1 both expressed) was no more than 25% and the “sensitivity of ring-stage IE^CSA cytoadhesion to inhibitor” value [1] was “insensitive”. The “time after invasion of maximal inhibition of IE^CSA binding” value [1] was 24 h and the “desequestration of adherent mature IE^CSA by flushing” value [3] was “removed only the mature forms”.

For chondroitinase ABC, the “sensitivity of ring-stage IE^CSA cytoadhesion to inhibitor” value [1] was “insensitive”, the “time after invasion of maximal inhibition of IE^CSA binding” value [1] was 24 h and the “inhibitory activity” value [1] was “no significant inhibitory activity”.

dermatan-sulphate was tested, and the “inhibitory activity” value [1] was “not specific”.

heparin was tested, and the “inhibition of ring-stage cytoadhesion” value ([1]; Heparin 100 μg/ml, heparinase treatment of target cells, SBEC 1D) was “about 50%”.

In the case of hyaluronate lyase, the “inhibitory activity” value [1] is reported as “low level of inhibitory activity”.

For hyaluronic acid, the “inhibitory activity” value [1] was “no activity”.

B1: trypsin: protease used to treat ring-stage IE (protein, UniProt P00760 24-246, looked up)
Serine protease 1: IVGGYTCGANTVPYQVSLNSGYHFCGGSLINSQWVVSAAHCYKSGIQVRLGEDNINVVEGNEQFISASKSIVHPSYNSNTLNNDIMLIKLKSAASLNSRVASISLPTSCASAGTQCLISGWGNTKSSGTSYPDVLKCLKAPILSDSSCKSAYPGQITSNMFCAGYLEGGKDSCQGDSGGPVVCSGKLQGIVSWGSGCAQKNKPGVYTKVCNYVSWIKQTIASN
modifications: TPCK-treated
notes: protease used to treat ring-stage IE
B1 was tested, and the “inhibition of ring-stage IE adhesion after protease treatment of IE” value ([1]; protease concentration 100 μg/ml) was “substantially inhibited”.
